Assay results taken from PubChem BioAssay (NCI).
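In this assay, cells in 96-well plates receive the compound at five concentrations for 48 hours. Endpoints are linearly interpolated between the surrounding concentrations. At the GI50, growth is halved. At the TGI there is no net growth.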

Legend:
Experiment in all cases: DTP human tumour cell line panel, 48 h
HL-60(TB) leukemia = test system: HL-60(TB) leukemia
SNB-19 CNS = test system: SNB-19 CNS
EKVX NSCLC = test system: EKVX NSCLC
SK-OV-3 ovarian = test system: SK-OV-3 ovarian
PC-3 prostate = test system: PC-3 prostate
HS 578T breast = test system: HS 578T breast
IGROV1 ovarian = test system: IGROV1 ovarian
K-562 leukemia = test system: K-562 leukemia
CAKI-1 renal = test system: CAKI-1 renal
LOX IMVI melanoma = test system: LOX IMVI melanoma
T-47D breast = test system: T-47D breast
786-0 renal = test system: 786-0 renal
SW-620 colon = test system: SW-620 colon
SF-539 CNS = test system: SF-539 CNS
MCF7 breast = test system: MCF7 breast
UO-31 renal = test system: UO-31 renal
UACC-62 melanoma = test system: UACC-62 melanoma
U251 CNS = test system: U251 CNS
OVCAR-8 ovarian = test system: OVCAR-8 ovarian
M14 melanoma = test system: M14 melanoma
NCI-H460 lung = test system: NCI-H460 lung
HCT-15 colon = test system: HCT-15 colon
SF-295 CNS = test system: SF-295 CNS
NCI-H226 lung = test system: NCI-H226 lung
RXF 393 renal = test system: RXF 393 renal
SK-MEL-5 melanoma = test system: SK-MEL-5 melanoma
SK-MEL-28 melanoma = test system: SK-MEL-28 melanoma
CCRF-CEM leukemia = test system: CCRF-CEM leukemia
A498 renal = test system: A498 renal
NCI/ADR-RES ovarian = test system: NCI/ADR-RES ovarian
KM12 colon = test system: KM12 colon
UACC-257 melanoma = test system: UACC-257 melanoma
SK-MEL-2 melanoma = test system: SK-MEL-2 melanoma
RPMI-8226 leukemia = test system: RPMI-8226 leukemia
HCC-2998 colon = test system: HCC-2998 colon
MDA-MB-435 = test system: MDA-MB-435
TK-10 renal = test system: TK-10 renal
SR leukemia = test system: SR leukemia
DU-145 prostate = test system: DU-145 prostate
HT29 colon = test system: HT29 colon
SF-268 CNS = test system: SF-268 CNS
HOP-62 NSCLC = test system: HOP-62 NSCLC
MDA-MB-231 breast = test system: MDA-MB-231 breast
HCT-116 colon = test system: HCT-116 colon
SNB-75 CNS = test system: SNB-75 CNS
HOP-92 NSCLC = test system: HOP-92 NSCLC
COLO 205 colon = test system: COLO 205 colon
OVCAR-4 ovarian = test system: OVCAR-4 ovarian
A549 NSCLC = test system: A549 NSCLC
ACHN renal = test system: ACHN renal
MOLT-4 leukemia = test system: MOLT-4 leukemia
NCI-H522 lung = test system: NCI-H522 lung
NCI-H23 lung = test system: NCI-H23 lung
SN12C renal = test system: SN12C renal
BT-549 breast = test system: BT-549 breast
MALME-3M melanoma = test system: MALME-3M melanoma
OVCAR-5 ovarian = test system: OVCAR-5 ovarian

`O=C(NC1CCCCC1)c1cc2ccccc2cc1O` was tested, and the TGI (HL-60(TB) leukemia) was 96.1 µM, the TGI (SNB-19 CNS) was over 100 µM and the TGI (EKVX NSCLC) was over 100 µM. The TGI (SK-OV-3 ovarian) was over 100 µM, the TGI (PC-3 prostate) was 99 µM and the TGI (HS 578T breast) was 97.8 µM. It also gave a TGI (IGROV1 ovarian) of over 100 µM, a TGI (K-562 leukemia) of 55.9 µM and a TGI (CAKI-1 renal) of over 100 µM. The TGI (LOX IMVI melanoma) was over 100 µM, the TGI (T-47D breast) was over 100 µM and the TGI (786-0 renal) was 84.5 µM. The TGI (SW-620 colon) was over 100 µM, the TGI (SF-539 CNS) was 57.2 µM and the TGI (MCF7 breast) was over 100 µM. It also gave a TGI (UO-31 renal) of 99 µM, a TGI (UACC-62 melanoma) of over 100 µM and a TGI (U251 CNS) of over 100 µM. For the same compound, the TGI (OVCAR-8 ovarian) was 67.9 µM, the TGI (M14 melanoma) was 53.3 µM and the TGI (NCI-H460 lung) was 62.8 µM. The TGI (HCT-15 colon) was 65.1 µM, the TGI (SF-295 CNS) was over 100 µM and the TGI (NCI-H226 lung) was 41 µM. For the same compound, the TGI (RXF 393 renal) was 58.5 µM, the TGI (SK-MEL-5 melanoma) was 47.9 µM and the TGI (SK-MEL-28 melanoma) was over 100 µM. For the same compound, the TGI (CCRF-CEM leukemia) was over 100 µM, the TGI (A498 renal) was 78.3 µM and the TGI (NCI/ADR-RES ovarian) was 54.7 µM. For the same compound, the TGI (KM12 colon) was over 100 µM, the TGI (UACC-257 melanoma) was over 100 µM and the TGI (SK-MEL-2 melanoma) was 44.7 µM. The TGI (RPMI-8226 leukemia) was 46.6 µM, the TGI (HCC-2998 colon) was 58.8 µM and the TGI (MDA-MB-435) was over 100 µM. For the same compound, the TGI (TK-10 renal) was over 100 µM, the TGI (SR leukemia) was 87.2 µM and the TGI (DU-145 prostate) was over 100 µM. For the same compound, the TGI (HT29 colon) was 37 µM, the TGI (SF-268 CNS) was over 100 µM and the TGI (HOP-62 NSCLC) was over 100 µM. For the same compound, the TGI (MDA-MB-231 breast) was over 100 µM, the TGI (HCT-116 colon) was 47.6 µM and the TGI (SNB-75 CNS) was over 100 µM. For the same compound, the TGI (HOP-92 NSCLC) was 65.1 µM, the TGI (COLO 205 colon) was over 100 µM and the TGI (OVCAR-4 ovarian) was over 100 µM.
`CC(=O)c1c(CN(C)c2ccccc2)n([O-])c2ccccc2[n+]1=O` was tested, and the GI50 (A549 NSCLC) was 47.1 µM, the TGI (A549 NSCLC) was over 100 µM and the GI50 (ACHN renal) was 32.9 µM. The TGI (ACHN renal) was over 100 µM, the GI50 (SNB-19 CNS) was 17.5 µM and the TGI (SNB-19 CNS) was 57.1 µM. It also gave a GI50 (EKVX NSCLC) of 41.2 µM, a TGI (EKVX NSCLC) of over 100 µM and a GI50 (SK-OV-3 ovarian) of 31.8 µM. The TGI (SK-OV-3 ovarian) was 70 µM, the GI50 (MOLT-4 leukemia) was 23.9 µM and the TGI (MOLT-4 leukemia) was over 100 µM. For the same compound, the GI50 (PC-3 prostate) was 11.7 µM, the TGI (PC-3 prostate) was 44.3 µM and the GI50 (NCI-H522 lung) was 25.6 µM. For the same compound, the TGI (NCI-H522 lung) was 69.9 µM, the GI50 (HS 578T breast) was 50.7 µM and the TGI (HS 578T breast) was over 100 µM. It also gave a GI50 (IGROV1 ovarian) of 45.4 µM, a TGI (IGROV1 ovarian) of over 100 µM and a GI50 (K-562 leukemia) of 28.6 µM. For the same compound, the TGI (K-562 leukemia) was over 100 µM, the GI50 (LOX IMVI melanoma) was 38.2 µM and the TGI (LOX IMVI melanoma) was over 100 µM. It also gave a GI50 (786-0 renal) of 55 µM, a TGI (786-0 renal) of over 100 µM and a GI50 (SW-620 colon) of 21 µM. The TGI (SW-620 colon) was over 100 µM, the GI50 (SF-539 CNS) was 28.7 µM and the TGI (SF-539 CNS) was 86.6 µM. It also gave a GI50 (MCF7 breast) of 15 µM, a TGI (MCF7 breast) of 63 µM and a GI50 (UO-31 renal) of 32 µM. For the same compound, the TGI (UO-31 renal) was over 100 µM, the GI50 (UACC-62 melanoma) was 23.9 µM and the TGI (UACC-62 melanoma) was 83.8 µM. For the same compound, the GI50 (U251 CNS) was 29.7 µM, the TGI (U251 CNS) was over 100 µM and the GI50 (OVCAR-8 ovarian) was 43.1 µM. For the same compound, the TGI (OVCAR-8 ovarian) was over 100 µM, the GI50 (M14 melanoma) was 31.4 µM and the TGI (M14 melanoma) was 80.4 µM. It also gave a GI50 (NCI-H460 lung) of 33.6 µM, a TGI (NCI-H460 lung) of over 100 µM and a GI50 (HCT-15 colon) of 31.3 µM. For the same compound, the TGI (HCT-15 colon) was over 100 µM, the GI50 (NCI-H226 lung) was 20.2 µM and the TGI (NCI-H226 lung) was 67.5 µM. For the same compound, the GI50 (RXF 393 renal) was 21.2 µM, the TGI (RXF 393 renal) was 62.7 µM and the GI50 (NCI-H23 lung) was 16.4 µM. The TGI (NCI-H23 lung) was 35.3 µM, the GI50 (SK-MEL-5 melanoma) was 16 µM and the TGI (SK-MEL-5 melanoma) was 42.4 µM. For the same compound, the GI50 (SN12C renal) was 24.9 µM, the TGI (SN12C renal) was 87.4 µM and the GI50 (SK-MEL-28 melanoma) was 38.7 µM. It also gave a TGI (SK-MEL-28 melanoma) of over 100 µM, a GI50 (CCRF-CEM leukemia) of 23 µM and a TGI (CCRF-CEM leukemia) of 96.7 µM. It also gave a GI50 (A498 renal) of 28.1 µM, a TGI (A498 renal) of over 100 µM and a GI50 (NCI/ADR-RES ovarian) of 19.5 µM. It also gave a TGI (NCI/ADR-RES ovarian) of 55.9 µM, a GI50 (KM12 colon) of 29.6 µM and a TGI (KM12 colon) of over 100 µM. The GI50 (UACC-257 melanoma) was 89.2 µM, the TGI (UACC-257 melanoma) was over 100 µM and the GI50 (BT-549 breast) was 25.1 µM. For the same compound, the TGI (BT-549 breast) was 86.6 µM, the GI50 (SK-MEL-2 melanoma) was over 100 µM and the TGI (SK-MEL-2 melanoma) was over 100 µM. The GI50 (RPMI-8226 leukemia) was 13.2 µM, the TGI (RPMI-8226 leukemia) was 40.9 µM and the GI50 (HCC-2998 colon) was 30.9 µM. It also gave a TGI (HCC-2998 colon) of over 100 µM, a GI50 (TK-10 renal) of 45.8 µM and a TGI (TK-10 renal) of over 100 µM. It also gave a GI50 (SR leukemia) of 5.79 µM, a TGI (SR leukemia) of over 100 µM and a GI50 (DU-145 prostate) of 42.1 µM. For the same compound, the TGI (DU-145 prostate) was over 100 µM, the GI50 (HT29 colon) was 20.4 µM and the TGI (HT29 colon) was 49.2 µM. The GI50 (SF-268 CNS) was 24.1 µM, the TGI (SF-268 CNS) was 79.9 µM and the GI50 (HOP-62 NSCLC) was 30.7 µM. It also gave a TGI (HOP-62 NSCLC) of over 100 µM, a GI50 (MALME-3M melanoma) of 23.9 µM and a TGI (MALME-3M melanoma) of 87.2 µM. The GI50 (MDA-MB-231 breast) was 27.1 µM, the TGI (MDA-MB-231 breast) was over 100 µM and the GI50 (HCT-116 colon) was 27.9 µM. For the same compound, the TGI (HCT-116 colon) was over 100 µM, the GI50 (SNB-75 CNS) was 53 µM and the TGI (SNB-75 CNS) was over 100 µM. The GI50 (OVCAR-5 ovarian) was 31.9 µM, the TGI (OVCAR-5 ovarian) was over 100 µM and the GI50 (COLO 205 colon) was 16.2 µM. The TGI (COLO 205 colon) was 32.9 µM, the GI50 (OVCAR-4 ovarian) was 29 µM and the TGI (OVCAR-4 ovarian) was over 100 µM.
